According to patent publication US10967167B2, “Using alternating electric fields to increase permeability of the blood brain barrier” (priority 2018, dated 2021):

Key:
rat brain (BBB) [1] = assay: Evans Blue accumulation in rat brain after alternating electric fields; type: in vivo
Source text: A set of in vivo experiments on rats was also run to quantify the increase in vessel permeability caused by exposure to the alternating electric fields. These experiments used Evans Blue (EB) dye, which is an azo dye that has a very high affinity for serum albumin (molecule size ˜69 kDa). Because of its large molecule size, serum albumin will ordinarily not be able to get past the BBB.
This was accomplished by shaving each rat's head, positioning a first pair of capacitively coupled electrodes on the top and bottom of the rat's head, and positioning a second pair of capacitively coupled electrodes on the left and right sides of the rat's head. A 100 kHz AC voltage was then applied between the top and bottom electrodes for 1 second, followed by a 100 kHz AC voltage applied between the right and left electrodes for 1 second, in a repeating sequence.
Under the conditions indicated in Table 1 and for the times indicated on Table 1, EB was injected intravenously into the tail vein under anesthesia (Once injected, EB immediately binds to Albumin), and the EB was allowed to circulate for 2 hours in all cases. The following steps were then performed: (a) intracardiac perfusion with saline; (b) brains are sliced in four pieces with a brain slicer; (c) pieces were photographed to localize staining and weighted; (d) EB extraction after tissue homogenization with TCA 50% (1:3) and centrifuge and (e) EB quantification at 610 nm. Results are given as μg EB per g tissue.
During the experiment, two animals from group 2 and one animal from group 4 were excluded (disrupted treatment, failure to inject EB into the tail vein). There were no differences between the animals treated with alternating electric fields (groups 1 and 2) and therefore these animals were grouped together. Similarly, there were no differences between sham heat and control animals (groups 3 and 4) and therefore these animals were grouped together.
EB accumulation in these four specific sections was then measured. In addition, a computer simulation was performed to determine the field strength in each of these four sections. […]

rat brain (BBB) [2] = assay: Dynamic Contrast Enhanced MRI (DCE-MRI) of rat brain; type: in vivo
Description: Yet another set of in vivo experiments was performed using Dynamic Contrast Enhanced MRI (DCE-MRI) with intravenous injection of Gadolinium contrast agent (Gd-DTPA, Magnetol, MW 547). In these experiments, test rats were treated with 100 kHz alternating electric fields for 72 h, and control rats were not treated with alternating electric fields for the same period of time. After this 72 h period, the alternating electric field was turned off, the rats were anesthetized, and a series of 60 T1w MRI scans (each of the scans having a duration of 28 seconds) was acquired. The gadolinium contrast agent was injected into the rat's tail vein during the 7th of these 60 scans.
The image analysis for each rat included (1) determining a baseline for each voxel by calculating the mean of the first six T1w MRI scans for each voxel (i.e., the scans prior to the injection of the gadolinium); (2) computing voxel by voxel, the percent signal change (i.e., gadolinium accumulation) over time relative to the baseline; (3) segmenting the brain into anterior, middle, and posterior segments; (4) generating for each of the three segments the mean percent signal change with respect to the baseline over all the voxels in the respective segment and then (5) averaging 4 consecutive time points (i.e. 4 scans) together. Finally, the data from all of the rats within any given group were averaged together. […]

Compound	average EB accumulation in the rat brain, averaged over all four sections 1-4 (rat brain (BBB) [1]; 100 kHz fields 72 h vs control, p<0.05)	EB accumulation in brain sections 1, 2 (frontal cerebrum) (rat brain (BBB) [1]; 100 kHz fields 72 h vs sham heat/control, EB i.v., 2 h circulation, highest field strength)	EB accumulation in posterior brain sections (3, 4) (rat brain (BBB) [1]; 100 kHz fields 72 h vs sham heat/control, EB i.v., 2 h circulation, lower field strength)	contrast agent accumulation in the brain tissue (percent signal change) (rat brain (BBB) [2]; 100 kHz fields 72 h (n=6) vs control rats (n=3), i.v.)	contrast agent accumulation in the brain tissue (percent signal change) (rat brain (BBB) [2]; 100 kHz fields 72 h followed by 96 hours without fields (n=7) vs control+96 h (n=3))
Cc1cc(-c2ccc(/N=N/c3ccc4c(S(=O)(=O)O)cc(S(=O)(=O)O)c(N)c4c3O)c(C)c2)ccc1/N=N/c1ccc2c(S(=O)(=O)O)cc(S(=O)(=O)O)c(N)c2c1O [EB, Evans Blue]	higher accumulation	statistically significant increase	smaller increase (that was not statistically significant)		
O=C([O-])CN(CCN(CC(=O)[O-])CC(=O)O)CCN(CC(=O)[O-])CC(=O)O.[Gd+3] [contrast agent, Gd-DTPA]				significantly higher	not significantly different
